In patent US20250290117A1, “MOLECULAR PHENOTYPIC ANTIMICROBIAL SUSCEPTIBILITY TESTING” (priority 2024, published 2025):

Key:
[1] = tested on: E. coli; experiment: Molecular phenotypic antimicrobial susceptibility test, specimen with two detected pathogens incubated together without isolation; type: cell-based, Escherichia coli; details: E. coli in specimen with two detected pathogens (E. coli and M. morganii) incubated together; for Ct of Sensitive Breakpoint: Ct of controls (average) 15.93; for Molecular Antimicrobial Susceptibility Result: at sensitive breakpoint
Procedure: (§1) Detection of Molecular Phenotypic Antimicrobial Susceptibility. Disclosed herein are the methods for the detection of phenotypic antimicrobial susceptibility via molecular methods. The present invention describes how a specimen 100 with a known microbial load is incubated and then exposed to a panel of antimicrobial agents to determine sensitivity (prevention of growth) or resistance (allowance of growth) to the specific antimicrobial agents tested utilizing molecular methods.
(§2) Sample Collection. Specimens 100 are collected from patients using sterile collection processes that are employed in routine clinical care. Specimens are transported to the testing facility in boric acid preservative. Specimens 100 are subsequently divided into a first sample 104 and a second sample 108.
(§3) Preparation of the Specimens for Testing. The specimens 100 are put through a pathogen identification process using PCR technology (e.g., using the first sample 104). The process for pathogen isolation includes steps of harvesting the pathogen (e.g., via centrifugation), isolating pathogen DNA via a DNA isolation and/or purification kit, and performing PCR on the pathogen DNA via PCR components (e.g., primers, enzymes, buffers) as would be known to the skilled artisan. Simultaneously, an additional aliquot of the same specimen (e.g., the second sample 108) is placed with liquid culture media and incubated for 4-6 hours. This aliquot is used for antimicrobial susceptibility testing if indicated based on the pathogen detection results. After pathogen identification is completed and if more than 10,000 cells/mL of bacteria (e.g., eligible bacteria) are detected in the source specimen, the second sample 108 then enters the antimicrobial susceptibility phase of testing. Specimens 100 with lower pathogen loads could also be utilized in the antibiotic susceptibility phase of testing with or without a longer incubation period.
(§4) Preparation of Antimicrobial Susceptibility Testing Plates. Antimicrobial solutions are prepared at known concentrations. The specific antimicrobials and their concentrations are selected based on the pathogen of interest and the described antimicrobial resistance breakpoints for that specimen pathogen and antimicrobial combination. These antimicrobials have been selected based on those commonly utilized by healthcare providers in routine clinical care for the specific type of suspected infection. The number and types of antimicrobials utilized can be customized based on the infection source, pathogen detected, patient-specific factors such as allergies or other health conditions (e.g., chronic kidney disease or concurrent medication use), or healthcare provider preferences such as antimicrobial availability or cost.
(§5) The antimicrobial solutions are prepared in liquid culture media (such as Muller Hinton Broth) to achieve the desired antimicrobial concentration and are then stored at −80° C. until use. For a given specimen, each antimicrobial is tested at a single or multiple antimicrobial concentration(s) which is its established breakpoints for sensitivity. The antimicrobial solutions are prepared and plated out for each specific pathogen. This allows ease of use on the day of testing after defrosting the plate 112. Table 1, which illustrates the results of molecular phenotypic antimicrobial susceptibility testing when more than one organism is present in the source specimen, provides an example of an antimicrobial plate 112 prepared for this purpose. Of note, control wells containing only culture media are present on all plates 112. This allows for evaluation of pathogen load when no antimicrobial is present.
(§6) Specimen Exposure to Antimicrobial Agents. The 1 mL aliquot of the specimen 100 previously mixed with culture media and incubated is obtained. Using optical density measurements as a guide, the specimen 100 is diluted to 0.5 McFarland. […]

[2] = tested on: M. morganii; experiment: as above; type: cell-based, Morganella morganii; details: M. morganii in specimen with two detected pathogens (E. coli and M. morganii) incubated together; for Ct of Sensitive Breakpoint: Ct of controls (average) 19.99; for Molecular Antimicrobial Susceptibility Result: at sensitive breakpoint
Procedure: as §1, §2, §3, §4, §5, §6

[3] = tested on: pathogens of clinical samples; experiment: Molecular phenotypic antimicrobial susceptibility test of clinical samples, extraction DNA purification step prior to PCR (Table 6); type: cell-based
Procedure: as §1
Sample Collection. Specimens 100 are collected from patients using sterile collection processes that are employed in routine clinical care. Specimens are transported to the testing facility in boric acid preservative.
Preparation of the Specimens for Testing. […] The process for pathogen isolation includes steps of harvesting the pathogen (e.g., via centrifugation), isolating pathogen DNA via a DNA isolation and/or purification kit, and performing PCR on the pathogen DNA via PCR components (e.g., primers, enzymes, buffers) as would be known to the skilled artisan. […] This aliquot is used for antimicrobial susceptibility testing if indicated based on the pathogen detection results. […] Specimens 100 with lower pathogen loads could also be utilized in the antibiotic susceptibility phase of testing with or without a longer incubation period.
as §4
The antimicrobial solutions are prepared in liquid culture media (such as Muller Hinton Broth) to achieve the desired antimicrobial concentration and are then stored at −80° C. until use. For a given specimen, each antimicrobial is tested at a single or multiple antimicrobial concentration(s) which is its established breakpoints for sensitivity. The antimicrobial solutions are prepared and plated out for each specific pathogen. […] This allows for evaluation of pathogen load when no antimicrobial is present.
Specimen Exposure to Antimicrobial Agents. The 1 mL aliquot of the specimen 100 previously mixed with culture media and incubated is obtained. Using optical density measurements as a guide, the specimen 100 is diluted to 0.5 McFarland.
Antimicrobial exposure plates are typically placed into an incubator for 12-16 hours.
Nucleic Acid Amplification of Antimicrobial Agent Exposed Pathogens. The antimicrobial exposure plate is removed after the period of incubation. The specimen then undergoes a purification or lysis step. For example, the specimen may undergo a purification step (e.g., magnetic bead-based or other separation protocol to isolate genetic material). In another example, the specimen may undergo a cell lysis step. For example, buffer (e.g., lysis buffer) may be added and incubated in the thermal cycler for preparation for direct PCR. Next, the specimen may undergo a polymerase chain reaction (PCR) testing protocol, whereby a semi-quantitative PCR method is utilized. This may be completed either with or without a specific extraction protocol step. The pathogens can be individually targeted and detected, or a universal genetic sequence can be utilized to detect the antimicrobial susceptibility of the specimen as a whole.

[4] = E. coli, clinical sample of r10-r24
[5] = E. coli, clinical sample of r10-r24, Ct Control Avg 18.112
[6] = E. coli, clinical sample of r158-r172
[7] = E. coli, clinical sample of r158-r172, Ct Control Avg 20.146
[8] = E. faecalis, clinical sample of r93-r99
[9] = E. faecalis, clinical sample of r93-r99, Ct Control Avg 22.987
[10] = E. faecalis, clinical sample of r100-r106
[11] = E. faecalis, clinical sample of r100-r106, Ct Control Avg 23.073
[12] = E. faecalis, clinical sample of r107-r113, Ct Control Avg 22.144
[13] = E. faecalis, clinical sample of r114-r120
[14] = E. faecalis, clinical sample of r114-r120, Ct Control Avg 20.822
[15] = E. faecalis, clinical sample of r151-r157, Ct Control Avg 20.56
[16] = K. aerogenes, clinical sample of r136-r150
[17] = K. aerogenes, clinical sample of r136-r150, Ct Control Avg 19.994
[18] = K. pneumoniae, clinical sample of r121-r135
[19] = K. pneumoniae, clinical sample of r121-r135, Ct Control Avg 24.272
[20] = M. morganii, clinical sample of r55-r69
[21] = M. morganii, clinical sample of r55-r69, Ct Control Avg 28.86
[22] = M. morganii, clinical sample of r70-r84
[23] = P. mirabilis, clinical sample of r25-r39
[24] = P. mirabilis, clinical sample of r25-r39, Ct Control Avg 26.064
[25] = P. mirabilis, clinical sample of r40-r54
[26] = P. mirabilis, clinical sample of r40-r54, Ct Control Avg 26.987

Structure (SMILES) | Ct of Sensitive Breakpoint [1] | Molecular Antimicrobial Susceptibility Result [1] | Ct of Sensitive Breakpoint [2] | Molecular Antimicrobial Susceptibility Result [2] | Molecular Antibiotic Susceptibility Result [3, 4] | Ct [3, 5] | Molecular Antibiotic Susceptibility Result [3, 6] | Ct [3, 7] | Molecular Antibiotic Susceptibility Result [3, 8] | Ct [3, 9] | Molecular Antibiotic Susceptibility Result [3, 10] | Ct [3, 11] | Ct [3, 12] | Molecular Antibiotic Susceptibility Result [3, 13] | Ct [3, 14] | Ct [3, 15] | Molecular Antibiotic Susceptibility Result [3, 16] | Ct [3, 17] | Molecular Antibiotic Susceptibility Result [3, 18] | Ct [3, 19] | further results
C[C@@H]1O[C@@H]1P(=O)(O)O [Fosfomycin] | 29.24 | Sensitive (Antimicrobial wells with pathogen load detected below the control wells (typically >2 cycle thresholds later) may be reported as Sensitive) | 33.43 | Sensitive (Antimicrobial wells with pathogen load detected below the control wells (typically >2 cycle thresholds later) may be reported as Sensitive) | Sensitive (Antimicrobial wells with pathogen load detected below the control wells (typically >2 cycle thresholds later) may be reported as Sensitive) | 28.111 | Sensitive (Antimicrobial wells with pathogen load detected below the control wells (typically >2 cycle thresholds later) may be reported as Sensitive) | 30.261 | Sensitive (Antimicrobial wells with pathogen load detected below the control wells (typically >2 cycle thresholds later) may be reported as Sensitive) | 35.358 | sensitive | 36.898 | 20.142 | Sensitive (Antimicrobial wells with pathogen load detected below the control wells (typically >2 cycle thresholds later) may be reported as Sensitive) | 30.598 | 37.968 | Sensitive (Antimicrobial wells with pathogen load detected below the control wells (typically >2 cycle thresholds later) may be reported as Sensitive) | 25.008 | Resistant | 18.711 | Molecular Antibiotic Susceptibility Result ([3]; E. faecalis, clinical sample of r107-r113): Resistant; Molecular Antibiotic Susceptibility Result ([3]; E. faecalis, clinical sample of r151-r157): Sensitive (Antimicrobial wells with pathogen load detected below the control wells (typically >2 cycle thresholds later) may be reported as Sensitive); Molecular Antibiotic Susceptibility Result [3, 20]: Sensitive (Antimicrobial wells with pathogen load detected below the control wells (typically >2 cycle thresholds later) may be reported as Sensitive); Ct [3, 21]: 31.935; Molecular Antibiotic Susceptibility Result [3, 22]: Sensitive (Antimicrobial wells with pathogen load detected below the control wells (typically >2 cycle thresholds later) may be reported as Sensitive); Ct ([3]; M. morganii, clinical sample of r70-r84, Ct Control Avg 27.053): 37.955; Molecular Antibiotic Susceptibility Result [3, 23]: Sensitive (Antimicrobial wells with pathogen load detected below the control wells (typically >2 cycle thresholds later) may be reported as Sensitive); Ct [3, 24]: 27.051; Molecular Antibiotic Susceptibility Result [3, 25]: Sensitive (Antimicrobial wells with pathogen load detected below the control wells (typically >2 cycle thresholds later) may be reported as Sensitive); Ct [3, 26]: 31.981
CN(C)[C@@H]1C(O)=C(C(N)=O)C(=O)[C@@]2(O)C(O)=C3C(=O)c4c(O)cccc4[C@@](C)(O)[C@H]3C[C@@H]12 [Tetracycline] | 14.55 | Resistant | 31.64 | Sensitive (Antimicrobial wells with pathogen load detected below the control wells (typically >2 cycle thresholds later) may be reported as Sensitive) | Sensitive (Antimicrobial wells with pathogen load detected below the control wells (typically >2 cycle thresholds later) may be reported as Sensitive) | 28.574 | Sensitive (Antimicrobial wells with pathogen load detected below the control wells (typically >2 cycle thresholds later) may be reported as Sensitive) | 34.28 | Resistant | 19.484 | Resistant | 23.171 | 28.949 | Resistant | 21.77 | 23.723 | Sensitive (Antimicrobial wells with pathogen load detected below the control wells (typically >2 cycle thresholds later) may be reported as Sensitive) | 37.04 | Sensitive (Antimicrobial wells with pathogen load detected below the control wells (typically >2 cycle thresholds later) may be reported as Sensitive) | 30.426 | Molecular Antibiotic Susceptibility Result [3, 20]: Resistant; Ct [3, 21]: 26.617; Molecular Antibiotic Susceptibility Result [3, 22]: Sensitive (Antimicrobial wells with pathogen load detected below the control wells (typically >2 cycle thresholds later) may be reported as Sensitive); Molecular Antibiotic Susceptibility Result [3, 23]: Resistant; Ct [3, 24]: 24.94; Molecular Antibiotic Susceptibility Result [3, 25]: Resistant; Ct [3, 26]: 23.424; Molecular Antibiotic Susceptibility Result ([3]; S. aureus, clinical sample of r85-r92): Resistant; Ct ([3]; S. aureus, clinical sample of r85-r92, Ct Control Avg 24.32): 15.029
